Data taken from patent US6596719B1 (Actelio Pharmaceuticals Ltd., priority 1999, dated 2003).
Like-named read-outs stand apart in the source and are kept apart here.

Key:
[1] = target: T1, human recombinant ETA receptors (Homo sapiens, UniProt P25101); assay: Inhibition of endothelin binding to membranes from CHO cells carrying human ET receptors (ETA)
T1 construct: expressed in transfected cells; host or cells: CHO cells (microsomal membranes)
T1 sequence (P25101 21-427): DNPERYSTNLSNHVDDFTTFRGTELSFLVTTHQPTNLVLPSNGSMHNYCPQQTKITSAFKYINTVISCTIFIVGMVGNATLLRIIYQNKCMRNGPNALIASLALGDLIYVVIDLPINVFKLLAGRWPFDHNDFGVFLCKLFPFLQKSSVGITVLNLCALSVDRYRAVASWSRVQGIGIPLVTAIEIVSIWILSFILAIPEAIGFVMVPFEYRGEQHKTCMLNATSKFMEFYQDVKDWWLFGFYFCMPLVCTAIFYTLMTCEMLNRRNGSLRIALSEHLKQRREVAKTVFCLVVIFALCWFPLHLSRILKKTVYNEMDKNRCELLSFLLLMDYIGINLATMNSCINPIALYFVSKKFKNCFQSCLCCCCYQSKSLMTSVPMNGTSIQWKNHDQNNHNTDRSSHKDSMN

[2] = target: T2, human recombinant ETB receptors (Homo sapiens, UniProt P24530); assay: Inhibition of endothelin binding to membranes from CHO cells carrying human ET receptors (ETB)
T2 construct: expressed in transfected cells; host or cells: CHO cells (microsomal membranes)
T2 sequence (P24530 27-442): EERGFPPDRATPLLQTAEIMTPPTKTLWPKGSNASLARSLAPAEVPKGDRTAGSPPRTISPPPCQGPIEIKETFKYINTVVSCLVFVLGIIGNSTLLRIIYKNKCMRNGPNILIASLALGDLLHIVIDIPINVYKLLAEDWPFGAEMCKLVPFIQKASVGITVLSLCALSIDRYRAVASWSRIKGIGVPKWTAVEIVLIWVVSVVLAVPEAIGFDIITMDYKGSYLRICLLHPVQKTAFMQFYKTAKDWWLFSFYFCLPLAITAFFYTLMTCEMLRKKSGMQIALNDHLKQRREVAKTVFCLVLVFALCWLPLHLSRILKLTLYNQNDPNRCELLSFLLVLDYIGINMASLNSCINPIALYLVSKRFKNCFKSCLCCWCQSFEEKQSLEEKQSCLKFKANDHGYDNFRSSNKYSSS
Experimental: 1) Inhibition of Endothelin Binding to Membranes from CHO Cells Carrying Human ET Receptors:
For competition binding studies, membranes of CHO cells expressing human recombinant ETA or ETB receptors were used. Microsomal membranes from recombinant CHO cells were prepared and the binding assay made as previously described (Breu V., et al, FEBS Lett 1993; 334:210).
The assay was performed in 200 uL 50 mM Tris/HCl buffer, pH 7.4, including 25 mM MnCl2, 1 mM EDTA and 0.5% (w/v) BSA in polypropylene microtiter plates. […]. […] After two h, the membranes were filtered on, filterplates containing GF/C filters (Unifilterplates from Canberra Packard S. A. Zürich, Switzerland). To each well, 50 uL of scintillation cocktail was added (MicroScint 20, Canberra Packard S. A. Zürich, Switzerland) and the filter plates counted in a microplate counter (TopCount, Canberra Packard S. A. Zürich, Switzerland).
All the test compounds were dissolved, diluted and added in DMSO. […] […].

[3] = membranes of CHO cells expressing human recombinant ETA receptors, 8 pM [125I]ET-1, 2 h at 20° C.
[4] = membranes of CHO cells expressing human recombinant ETB receptors, 8 pM [125I]ET-1, 2 h at 20° C.

CCS(=O)(=O)NCCOc1nc(C2CC2)nc(NS(=O)(=O)c2ccc(C(C)C)cn2)c1Oc1ccccc1OC [Example 43, 5-i-propyl-N-[6-(2-ethanesulfonylamino-ethoxy)-5-(o-methoxyphenoxy)-2-cyclopropyl-pyrimidin-4-yl]-pyridine-2-sulfonamide]
IC50 [1]: 75 nM
IC50 [2]: 376 nM

CCS(=O)(=O)NCCOc1nc(C2CC2)nc(NS(=O)(=O)c2ccc(C(C)(C)C)cc2)c1Oc1ccccc1OC [Example 44, 4-tert.-butyl-N-[6-(2-ethanesulfonylamino-ethoxy)-5-(o-methoxyphenoxy)-2-cyclopropyl-pyrimidin-4-yl]-benzene-sulfonamide]
IC50 [1, 3]: 119 nM
IC50 [2, 4]: 323 nM

COc1ccccc1Oc1c(NS(=O)(=O)c2ccc(C(C)C)cn2)nc(N2CCOCC2)nc1OCCNS(C)(=O)=O [Example 45, 5-isopropyl-N-[6-(2-methanesulfonylamino-ethoxy)-5-(o-methoxyphenoxy)-2-(N-morpholino)-4-pyrimidinyl]-2-pyridine sulfonamide]
IC50 [1]: 251 nM
IC50 [2]: 336 nM

CCCS(=O)(=O)NCCOc1nc(N2CCOCC2)nc(NS(=O)(=O)c2ccc(C(C)C)cn2)c1Oc1ccccc1OC [Example 46, 5-isopropyl-N-[6-(2-(1-propane)sulfonylamino-ethoxy)-5-(o-methoxyphenoxy)-2-(N-morpholino)-4-pyrimidinyl]-2-pyridine sulfonamide]
IC50 [1, 3]: 140 nM
IC50 [2, 4]: 103 nM

CCCCS(=O)(=O)NCCOc1nc(C(F)(F)F)nc(NS(=O)(=O)c2ccc(C(C)C)cn2)c1Oc1ccccc1OC [Example 49, 5-i.-propyl-N-[6-(2-butanesulfonylamino-ethoxy)-5-(o-methoxyphenoxy)-2-trifluoromethyl-4-pyrimidinyl]pyridine-2-sulfonamide]
IC50 [1]: 1030 nM
IC50 [2]: 274 nM

COc1ccccc1Oc1c(NS(=O)(=O)c2ccc(C(C)(C)C)cc2)nc(-c2ccncc2)nc1OCCNS(=O)(=O)c1cccs1 [Example 51, 4-tert.-butyl-N-[6-(2-(thiophene-2-sulfonylamino)-ethoxy)-5-(o-methoxyphenoxy)-2-(4-pyridyl)-4-pyrimidinyl]-benzene-sulfonamide]
IC50 [1]: 3450 nM
IC50 [2]: 182 nM

COc1ccccc1Oc1c(NS(=O)(=O)c2ccc(C(C)C)cn2)nc(C(F)(F)F)nc1OCCNS(=O)(=O)c1cccs1 [Example 54, 5-i.-propyl-N-[6-(2-((2-thiophene)-sulfonylamino)-ethoxy)-5-(o-methoxyphenoxy)-2-trifluoromethyl-4-pyrimidinyl]pyridine-2-sulfonamide]
IC50 [1]: 2410 nM
IC50 [2]: 603 nM

COc1ccccc1Oc1c(NS(=O)(=O)c2ccc(C)cn2)nc(N2CCOCC2)nc1OCCNS(=O)(=O)c1ccccc1 [Example 57, 5-methyl-N-[6-(2-(benzenesulfonylamino)-ethoxy)-5-(o-methoxyphenoxy)-2-(N-morpholino)-4-pyrimidinyl]-2-pyridine sulfonamide]
IC50 [1]: 1620 nM
IC50 [2]: 208 nM

COc1ccccc1Oc1c(NS(=O)(=O)c2ccc(C(C)(C)C)cc2)nc(C)nc1OCCNS(=O)(=O)c1cccs1 [Example 62, 4-tert.-butyl-N-[6-(2-(2-thiophenesulfonylamino)-ethoxy)-5-(o-methoxyphenoxy)-2-methyl-4-pyrimidinyl]-benzene sulfonamide]
IC50 [1]: 443 nM
IC50 [2]: 163 nM

COc1ccccc1Oc1c(NS(=O)(=O)c2ccc(C(C)C)cn2)nc(-c2ncccn2)nc1OCCNS(=O)(=O)c1cccs1 [Example 68, 5-isopropyl-N-[6-(2-(2-thiophenesulfonylamino)-ethoxy)-5-(o-methoxyphenoxy)-2-(2-pyrimidinyl)-4-pyrimidinyl]-2-pyridine sulfonamide]
IC50 [1]: 477 nM
IC50 [2]: 169 nM

COc1ccccc1Oc1c(NS(=O)(=O)c2ccc(C(C)C)cn2)nc(-c2ccncc2)nc1OCCNS(=O)(=O)c1cccs1 [Example 71]
IC50 [1]: 508 nM
IC50 [2]: 231 nM

CCS(=O)(=O)NCCOc1nc(-c2ccncc2)nc(NS(=O)(=O)c2ccc(C(C)C)cn2)c1Oc1ccccc1OC [Example 73]
IC50 [1]: 233 nM
IC50 [2]: 542 nM

COc1ccccc1Oc1c(NS(=O)(=O)c2ccc(C(C)C)cn2)nc(-c2ccncc2)nc1OCCNS(=O)(=O)C(F)(F)F [Example 74]
IC50 [1]: 531 nM
IC50 [2]: 934 nM

CCS(=O)(=O)NCCOc1nc(-c2ccncc2)nc(NS(=O)(=O)c2ccc(C)cn2)c1Oc1ccccc1OC [Example 77, 5-methyl-N-[6-(2-(ethanesulfonylamino)-ethoxy)-5-(o-methoxyphenoxy)-2-(4-pyridyl)-4-pyrimidinyl]-2-pyridine sulfonamide]
IC50 [1, 3]: 185 nM
IC50 [2, 4]: 5400 nM

COc1ccccc1Oc1c(NS(=O)(=O)c2ccc(C)cn2)nc(-c2ccncc2)nc1OCCNS(C)(=O)=O [Example 78, 5-methyl-N-[6-(2-(methanesulfonylamino)-ethoxy)-5-(o-methoxyphenoxy)-2-(4-pyridyl)-4-pyrimidinyl]-2-pyridine sulfonamide]
IC50 [1]: 627 nM
IC50 [2]: 5460 nM

CCS(=O)(=O)NCCCOc1nc(C2CC2)nc(NS(=O)(=O)c2ccc(C(C)(C)C)cc2)c1Oc1ccccc1OC [Example 79]
IC50 [1]: 37 nM
IC50 [2]: > 10000 nM

CCS(=O)(=O)NCCOc1nc(N2CCOCC2)nc(NS(=O)(=O)c2ccc(C(C)(C)C)cc2)c1Oc1ccccc1OC [Example 81, 4-tert.-butyl-N-[6-(2-ethanesulfonylamino-ethoxy)-2-(N-morpholino)-5-(o-methoxyphenoxy)-pyrimidin-4-yl]-benzenesulfonamide]
IC50 [1]: 104 nM
IC50 [2]: 1240 nM

CCS(=O)(=O)NCCOc1nc(N2CCN(C)CC2)nc(NS(=O)(=O)c2ccc(C(C)(C)C)cc2)c1Oc1ccccc1OC [Example 82, 4-tert.-butyl-N-[6-(2-ethanesulfonylamino-ethoxy)-2-(N-(N′-methyl)-piperazinyl)-5-(o-methoxyphenoxy)-pyrimidin-4-yl]-benzene-sulfonamide]
IC50 [1]: 311 nM
IC50 [2]: 3510 nM

CCS(=O)(=O)NCCCOc1nc(C2CC2)nc(NS(=O)(=O)c2ccc(C(C)C)cn2)c1Oc1ccccc1OC [Example 91, 5-i.-propyl-N-[6-(3-(ethanesulfonylamino)-propoxy)-5-(o-methoxyphenoxy)-2-cyclopropyl-4-pyrimidinyl]-pyridine-2-sulfonamide]
IC50 [1, 3]: 45.5 nM
IC50 [2, 4]: 103 nM

CCCS(=O)(=O)NCCCOc1nc(C2CC2)nc(NS(=O)(=O)c2ccc(C(C)C)cn2)c1Oc1ccccc1OC [Example 92, 5-i.-propyl-N-[6-(3-(propanesulfonylamino)-propoxy)-5-(o-methoxyphenoxy)-2-cyclopropyl-4-pyrimidinyl]-pyridine-2-sulfonamide]
IC50 [1, 3]: 82.1 nM
IC50 [2, 4]: 15 nM

COc1ccccc1Oc1c(NS(=O)(=O)c2ccc(C(C)C)cn2)nc(C2CC2)nc1OCCCNS(=O)(=O)c1cccs1 [Example 93, 5-i.-propyl-N-[6-(3-(2-thiophenesulfonylamino)-propoxy)-5-(o-methoxyphenoxy)-2-cyclopropyl-4-pyrimidinyl]-pyridine-2-sulfonamide]
IC50 [1, 3]: 22.2 nM
IC50 [2]: 3.86 nM

COc1ccccc1Oc1c(NS(=O)(=O)c2ccc(C(C)C)cn2)nc(C2CC2)nc1OCCCNS(=O)(=O)c1ccc(C)cc1 [Example 94, 5-i.-propyl-N-[6-(3-(p-toluenesulfonylamino)-propoxy)-5-(o-methoxyphenoxy)-2-cyclopropyl-4-pyrimidinyl]-pyridine-2-sulfonamide]
IC50 [1, 3]: 77.3 nM
IC50 [2]: 18.6 nM

p-methyl-N-[6-(ethoxy-2-benzenesulfonamido)-5-(o-methoxyphenoxy)-2-(4-pyridyl)-4-pyrimidinyl]benzene-sulfonamide [Example 2]
IC50 [1, 3]: 1960 nM
IC50 [2, 4]: 1790 nM
